From US4123530A, “N-cyclohexyl-piperazino acetamides and propionamides” (Camillo Corvi S.p.A., priority 1976, dated 1978)

What was measured:
Withdrawal ulcer = experiment: Anti-ulcer activity: Withdrawal ulcer; format: in vivo; details: 100 mg/kg os
[1] = test system: Ulcer due to activity prevention; experiment: Anti-ulcer activity: Ulcer due to activity prevention (Rossi & Coll.); format: in vivo
acute toxicity, mice = details: mouse, in vivo, read-out: DL/50 (the source's name)
Reserpine ulcer = experiment: Anti-ulcer activity: Reserpine ulcer with rats; format: in vivo
[2] = test system: Phenylbutazone-histamine ulcer; experiment: Anti-ulcer activity: Phenylbutazone-histamine ulcer; format: in vivo
Wistar rats = experiment: Sub-chronic toxicity (30 days per ora); format: in vivo; details: oral 400 mg/kg
Method: (2) Sub-chronic toxicity (C/63)
Eighty Wistar rats were divided in 4 groups of twenty each (10 males and 10 fewales). Compound (C/63) was given per ora to three groups of animals for a period of 30 days in quantities of 100, 200 and 400 mg/kg.

Shay ulcer = experiment: Anti-ulcer activity: Shay ulcer; format: in vivo; details: 300 mg/kg os
acute toxicity, rats = details: rat, in vivo, po, os, read-out: DL/50 (the source's name)
intestine peristaltis = experiment: spasmolytic activity in vivo: activity on intestine peristaltis (mouse)
Description: Activity of C/63 on intestine peristaltis (mouse)

Guinea-pig Ileus = experiment: spasmolytic activity in vitro, Guinea-pig Ileus

| SMILES | Inhibition % (Withdrawal ulcer) | Inhibition % ([1]; 100 mg/kg os) | Inhibition % ([1]; 200 mg/kg os) | LD50 (acute toxicity, mice; po, os) | Inhibition % (Reserpine ulcer; 100 mg/kg os) | Inhibition % (Reserpine ulcer; 300 mg/kg os) | anticholinergic activity (anticholinergic activity) | Inhibition % ([2]; 50 mg/kg os) | Inhibition % ([2]; 100 mg/kg os) | appearance of damages due to toxicity (bloodcrasis, biochemical blood analysis, weight, histological examination of the organs) (Wistar rats) | Inhibition % ([1]; 50 mg/kg os) | LD50 (acute toxicity, mice; iv) | Inhibition % (Shay ulcer) | LD50 (acute toxicity, rats) | Inhibition % ([2]; 25 mg/kg os) | Inhibition % (intestine peristaltis; 100 mg/kg os) | Inhibition % (intestine peristaltis; 200 mg/kg os) | DE50 against Ach. (Guinea-pig Ileus; against Ach.) | DE50 against BaCl2 (Guinea-pig Ileus; against BaCl2) | DE50 against histamine (Guinea-pig Ileus; against histamine) |
| --- | --- | --- | --- | --- | --- | --- | --- | --- | --- | --- | --- | --- | --- | --- | --- | --- | --- | --- | --- | --- |
| CC1CCC(NC(=O)CN2CCNCC2)CC1 (stereo not drawn) [C/82, N-(1-piperazinylacetyl)-4-methyl-cyclohexylamine] | 30% | 30% | 35% | 1790 mg/kg | 47% | 70% | no anticholinergic activity | 33% | 60% |  |  |  |  |  |  |  |  |  |  |  |
| O=C(CN1CCNCC1)NC1CCCCC1 [C/63, N-[1-piperazinylacetyl]-cyclohexylamine] | 33% | 32% | 45% | 1970 mg/kg |  | 25% |  | 43% | 72% | no appearance of damages due to the toxicity of the drug | 19% | 271 mg/kg | 72% | 3900 mg/kg | 10% | 6% | 23% | > 40 µg/mL | > 40 µg/mL | > 40 µg/mL |
